Laboratory results published in patent US11752215B2, “Targeting tumor cells with chemotherapeutic agents conjugated to anti-matriptase antibodies by in vivo cleavable linking moieties” (priority 2016, dated 2023).
“Also recorded” adds a separate entry of the source.

Tests used:
MM cells = assay: MM cell proliferation, DOX-conjugates alone and combined with thalidomide; assay type: cell-based; details: thalidomide alone
Excerpt: FIGS. 6A and B illustrate that thalidomide sensitizes MM cells to M69-DOX, but not M24-DOX: (A) comparison of treatment of MM cells by M69-DOX alone with the M69-DOX/thalidomide combination treatment; and (B) comparison of treatment of MM cells by M24-DOX alone with the M24-DOX/thalidomide combination treatment.
Thalidomide is a therapeutic for multiple myeloma treatment, and the combination of thalidomide and dexamethasone is one of the most common regimens for treatment of patients with multiple myeloma, with an response rate of up to 60-70% (Denz, U., Eur. J. Cancer., 2006, 42:1591-1600; Gieseler, F., et al., Thromb. Haemost., 2008, 99: 1001-1007). The efficacy of both DOX-conjugates in combination with current MM therapeutics such as thalidomide was tested.

matriptase = assay: Matriptase activation in MM cells (Western analysis with mAb M69); assay type: cell-based, human; details: 24-hour treatment, 50 μM
Experimental: (§1) FIG. 5 illustrates activation of matriptase in MM cells induced by thalidomide. MM cells (MM.1S) were treated with varying concentrations of thalidomide as indicated for 24 hours followed by Western analyses to detect the activation of matriptase using a specific monoclonal antibody (M69) to the active form of the enzyme. […] GAPDH served as control.
as §1, with “7” for “5”
To examine the increase in cytotoxicity that resulted with the thalidomide and M69-DOX conjugate we measured the effect of thalidomide on expression of activated matriptase.

[1] = test system: bone marrow-derived MSCs (lack matriptase expression); assay: Tolerance of bone marrow-derived mesenchymal stromal cells (cell count); assay type: cell-based, human; details: 5 nM, 4 days
Experimental: Cell numbers were determined by Vi-Cell counter.
Human bone marrow-derived MSCs, which lack matriptase expression, were used as a control to determine the cytotoxic selectivity of M24-DOX as shown in FIG. 4 where bone marrow-derived mesenchymal stromal cells (5×10^4/well, 24-well plates) were treated with M24-DOX or free DOX at varying concentrations for 4 days. Cell numbers were determined by Vi-Cell counter.

[2] = test system: breast tumors (MDA-MB468); assay: Human breast xenograft tumor model, M69-DOX; assay type: in vivo, NOD/SCID mice; details: 2 mg/kg
Experimental: FIG. 8 illustrates the M69-DOX conjugate targeting active matriptase inhibited breast tumor growth in vivo, comparing treatment by M69-DOX at 10 mg/Kg and 20 mg/Kg doses with treatment by DOX at 2 mg/Kg dose and the control.
FIG. 9 illustrates reduction of the tumor weight by M69-DOX at 10 mg/Kg and 20 mg/Kg doses in comparison with treatment by DOX at 2 mg/Kg dose and the control.
To assess the efficacy of M69-DOX to suppress tumor growth in vivo, a human breast xenograft tumor model was used. NOD/SCID mice bearing breast tumors (MDA-MB468) were treated twice weekly with M69-DOX at either 20 or 10 mg/kg, as well as treated with DOX at 2 mg/kg. […] As a single mAb was attached with 7 molecules of DOX, a dose at 10 mg/kg of M69-DOX is equivalent to […] of DOX administered.
Reduced Weights of Tumor Masses in Mice Treated with M69-DOX. At the end of the treatment course, the tumor masses were collected from the experimental mice, and were weighed. The average weights of tumors from the groups treated with M69-DOX at either dose as well as treated with DOX were reduced to about 50% of the one from the untreated control group (FIG. 9). Significant reduction in tumor weights by M69-DOX further confirms the efficacy of site-directed delivery of DOX to tumor cells expressing activated matriptase.

PC-3 prostate carcinoma = details: PC-3 xenograft; cited from earlier work

Q: Which “effect on MM cell proliferation” value (MM cells) does the source give for `O=C1CCC(N2C(=O)c3ccccc3C2=O)C(=O)N1` (stereo not drawn) [thalidomide] here?
A: The value was “no effect on MM cell proliferation; also recorded: little effect on the cell proliferation of MM cells”.

Q: And the “activation of matriptase in MM cells” value (matriptase)?
A: Its value is “markedly enhanced”.

Q: For `COc1cccc2c1C(=O)c1c(O)c3c(c(O)c1C2=O)C[C@@](O)(C(=O)CO)C[C@@H]3OC1CC(N)C(O)C(C)O1` (stereo partly drawn) [DOX, (8S,10S)-10-(4-amino-5-hydroxy-6-methyl-tetrahydro-2H-pyran-2-yloxy)-6,8,11-trihydroxy-8-(2-hydroxyacetyl)-1-methoxy-7,8,9,10-tetrahydrotetracene-5,12-dione], which “effect on MSC proliferation” value [1] is on record?
A: The value was “significantly inhibit cell proliferation”.

Q: What about the tumor growth [2] of the same molecule?
A: Its tumor growth is “significantly abolished”.

Q: And the “average weights of tumors relative to untreated control group” value ([2]; end of treatment)?
A: The value was “about 50%”.

Q: Which “tumor growth and metastasis formation” value (PC-3 prostate carcinoma) does the source give for ecotin: matriptase inhibitor here?
A: Its value is “Reduced tumor growth and metastasis formation”.
